16 compounds from patent US20240025919A1, “AZA-TETRACYCLIC OXAZEPINE COMPOUNDS AND USES THEREOF” (Genentech, Inc., priority 2022, published 2024) can be followed below.

Read-outs that look alike come from different tables or passages of the source.

For assay [1], the target named is KRAS WT (Homo sapiens (Human), UniProt P01116). Kind of assay: KRAS WT Biochemical Assay, BODIPY-GDP Exchange TR-FRET (Example 501; 3 nM KRAS WT, 3 nM SOS1, 60-minute incubation). Summed up: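 SOS1-mediated exchange assay: 3 nM biotin-KRAS WT with terbium-streptavidin, started with 3 nM SOS1 and 300 nM BODIPY-GDP, HEPES pH 7.5 with MgCl2. TR-FRET (520/490 nm) read after 60 min; normalized to DMSO and full-inhibition control, IC50 from 4-parameter Hill fit.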
(Time-resolved FRET reads energy transfer from a long-lived donor to a nearby acceptor.)

Assay [2] deals with KRAS G12D (Homo sapiens (Human), UniProt P01116, G12D). Kind of assay: KRAS G12D LoEnz Biochemical Assay, BODIPY-GDP Exchange TR-FRET (SOS1-mediated nucleotide exchange). To be noted: read-out: KRas (G12D) GDP HTRF IC50.
[3] abbreviates: read-out: KRas(wt) GDP HTRF IC50.

Sequence of KRAS G12D (P01116-2 other isoform, or with tags, fused parts or gaps G12D): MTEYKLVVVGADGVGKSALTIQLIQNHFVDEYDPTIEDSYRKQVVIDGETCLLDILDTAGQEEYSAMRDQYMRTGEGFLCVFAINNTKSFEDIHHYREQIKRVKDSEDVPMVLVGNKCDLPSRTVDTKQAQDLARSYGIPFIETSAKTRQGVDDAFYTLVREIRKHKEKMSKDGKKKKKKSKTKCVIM
Sequence of KRAS WT (P01116-2 other isoform, or with tags, fused parts or gaps): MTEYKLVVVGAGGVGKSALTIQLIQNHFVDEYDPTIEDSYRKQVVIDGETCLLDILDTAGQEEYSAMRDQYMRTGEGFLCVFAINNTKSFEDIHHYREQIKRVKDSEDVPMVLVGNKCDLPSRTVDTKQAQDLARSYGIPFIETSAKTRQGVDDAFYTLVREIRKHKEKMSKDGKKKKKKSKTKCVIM

`Cc1c(F)c(N)c(F)c(-c2nc3c4c(nc(OC[C@@H]5C[C@@H](F)CN5C)nc4c2F)N2C[C@H]4CC[C@H](N4)[C@H]2[C@H](C)O3)c1C(F)(F)F` [Compound 228, 2,6-Difluoro-3-((5S,5aS,6S,9R)-1-fluoro-12-(((2S,4R)-4-fluoro-1-methylpyrrolidin-2-yl)methoxy)-5-methyl-5a,6,7,8,9,10-hexahydro-5H-4-oxa-3,10a,11,13,14-pentaaza-6,9-methanonaphtho[1,8-ab]heptalen-2-yl)-5-methyl-4-(trifluoromethyl)aniline]: the half-maximal inhibitory concentration (IC50) in assay [1] (read-out: KRas HTRF IC50) was determined as 4880 nM; in assay [2], 370 nM.

`C[C@@H]1Oc2nc(-c3cc(N)c(F)c(Cl)c3CC(F)F)c(F)c3nc(OC[C@@]45CCCN4C[C@H](F)C5)nc(c23)N2C[C@H]3CC[C@H](N3)[C@@H]12` [Compound 186, 3-Chloro-4-(2,2-difluoroethyl)-2-fluoro-5-((5S,5aS,6S,9R)-1-fluoro-12-(((2R,7aS)-2-fluorotetrahydro-1H-pyrrolizin-7a(5H)-yl)methoxy)-5-methyl-5a,6,7,8,9,10-hexahydro-5H-4-oxa-3,10a,11,13,14-pentaaza-6,9-methanonaphtho[1,8-ab]heptalene-2-yl)aniline]: the results for the IC50 in assay [1] (read-out: KRas HTRF IC50) and in assay [2] were 5.61 nM and 0.1 nM, respectively.

As to `Cc1nc(N)cc(-c2nc3c4c(nc(OCC5(CN6C[C@H]7C[C@@H]6CO7)CC5)nc4c2F)N2C[C@H]4CC[C@H](N4)[C@H]2[C@H](C)O3)c1C(F)(F)F` [Compound 209, 4-((5S,5aS,6S,9R)-12-((1-(((1R,4R)-2-Oxa-5-azabicyclo[2.2.1]heptan-5-yl)methyl)cyclopropyl)methoxy)-1-fluoro-5-methyl-5a,6,7,8,9,10-hexahydro-5H-4-oxa-3,10a,11,13,14-pentaaza-6,9-methanonaphtho[1,8-ab]heptalene-2-yl)-6-methyl-5-(trifluoromethyl)pyridin-2-amine], the IC50 in assay [1] (read-out: KRas HTRF IC50) was determined as 18.5 nM; in assay [2], 0.24 nM.

As for `Cc1c(F)c(N)cc(-c2nc3c4c(nc(OCC56CCN5CC(F)(F)C6)nc4c2F)N2C[C@H]4CC[C@H](N4)[C@H]2[C@H](C(F)(F)F)O3)c1C(F)(F)F` (mixture of isomers) [Compound 244, 5-((5R,5aS,6S,9R)-12-((3,3-Difluoro-1-azabicyclo[3.2.0]heptan-5-yl)methoxy)-1-fluoro-5-(trifluoromethyl)-5a,6,7,8,9,10-hexahydro-5H-4-oxa-3,10a,11,13,14-pentaaza-6,9-methanonaphtho[1,8-ab]heptalene-2-yl)-2-fluoro-3-methyl-4-(trifluoromethyl)aniline], the half-inhibitory concentration (IC50) in assay [1] (read-out: KRas HTRF IC50) worked out at 11.9 nM; in assay [2], 0.52 nM.

In the case of `Cc1nc(N)cc(-c2nc3c4c(nc(OCC5(CN6CCO[C@H](C)C6)CC5)nc4c2F)N2C[C@H]4CC[C@H](N4)[C@H]2[C@H](C)O3)c1C(F)(F)F` [Compound 213, 4-((5S,5aS,6S,9R)-1-Fluoro-5-methyl-12-((1-(((R)-2-methylmorpholino)methyl)cyclopropyl)methoxy)-5a,6,7,8,9,10-hexahydro-5H-4-oxa-3,10a,11,13,14-pentaaza-6,9-methanonaphtho[1,8-ab]heptalen-2-yl)-6-methyl-5-(trifluoromethyl)pyridin-2-amine], the half-inhibitory concentration (IC50) was found to be 13.6 nM in assay [1] (read-out: KRas HTRF IC50) and 0.31 nM in assay [2].

Take `Cc1nc(N)cc(-c2nc3c4c(nc(OC[C@@]56CCN5CC(F)(F)C6)nc4c2F)N2C[C@H]4CC[C@H](N4)[C@H]2[C@H](C(F)(F)F)O3)c1C(F)(F)F` (single isomer, unassigned) [252 (isomer 1)]: the concentration for half-maximal inhibition (IC50) in assay [1] (read-out: KRas HTRF IC50) was 25 nM; in assay [2], 1.17 nM.

Turning to `Cc1nc(N)cc(-c2nc3c4c(nc(OC[C@@]56CCCN5C[C@H](F)C6)nc4c2F)N2C[C@H]4CC[C@H](N4)[C@H]2[C@H](C)O3)c1C(F)(F)F` [Compound 215, 4-((5S,5aS,6S,9R)-1-Fluoro-12-(((2R,7aS)-2-fluorotetrahydro-1H-pyrrolizin-7°(5H)-yl)methoxy)-5-methyl-5°,6,7,8,9,10-hexahydro-5H-4-oxa-3,10°,11,13,14-pentaaza-6,9-methanonaphtho[1,8-ab]heptalen-2-yl)-6-methyl-5-(trifluoromethyl)pyridin-2-amine], the figures for the 50% inhibitory concentration (IC50) in assay [1] (read-out: KRas HTRF IC50) and in assay [2] were 7.1 nM and 0.21 nM, respectively.

As for `Cc1nc(N)cc(-c2nc3c4c(nc(OCC5(CN6C7CCC6COC7)CC5)nc4c2F)N2C[C@H]4CC[C@H](N4)[C@H]2[C@H](C)O3)c1C(F)(F)F` [Compound 206, 4-((5S,5aS,6S,9R)-12-((1-((3-Oxa-8-azabicyclo[3.2.1]octan-8-yl)methyl)cyclopropyl)methoxy)-1-fluoro-5-methyl-5a,6,7,8,9,10-hexahydro-5H-4-oxa-3,10a,11,13,14-pentaaza-6,9-methanonaphtho[1,8-ab]heptalene-2-yl)-6-methyl-5-(trifluoromethyl)pyridin-2-amine], the figures for the concentration for half-maximal inhibition (IC50) in assay [1] (read-out: KRas HTRF IC50) and in assay [2] were 24.2 nM and 0.17 nM, respectively.

Turning to `Cc1nc(N)cc(-c2nc3c4c(nc(OCC56CCCN5CC(F)C6)nc4c2F)N2CC4CCC(N4)[C@H]2[C@@H](C(F)(F)F)O3)c1C(F)(F)F` (stereo in doubt) [Compound 243, 4-((6R,9S)-1-fluoro-12-(((2S,7aR)-2-fluorotetrahydro-1H-pyrrolizin-7a(5H)-yl)methoxy)-5-(trifluoromethyl)-5a,6,7,8,9,10-hexahydro-5H-4-oxa-3,10a,11,13,14-pentaaza-6,9-methanonaphtho[1,8-ab]heptalene-2-yl)-6-methyl-5-(trifluoromethyl)pyridin-2-amine], the half-maximal inhibitory concentration (IC50) was 3960 nM in assay [1] (read-out: KRas HTRF IC50) and 581 nM in assay [2].

As for `Cc1c(F)c(N)nc(-c2nc3c4c(nc(OC[C@@]56CCCN5C[C@H](F)C6)nc4c2F)N2C[C@H]4CC[C@H](N4)[C@H]2[C@H](C)O3)c1C(F)(F)F` [Compound 191, 3-Fluoro-6-((5S,5aS,6S,9R)-1-fluoro-12-(((2R,7aS)-2-fluorotetrahydro-1H-pyrrolizin-7a(5H)-yl)methoxy)-5-methyl-5a,6,7,8,9,10-hexahydro-5H-4-oxa-3,10a,11,13,14-pentaaza-6,9-methanonaphtho[1,8-ab]heptalen-2-yl)-4-methyl-5-(trifluoromethyl)pyridin-2-amine], the IC50 in assay [1] (read-out: KRas HTRF IC50) was 91.1 nM; in assay [2], 0.46 nM.

For `Cc1nc(N)cc(-c2nc3c4c(nc(OCC5(CN6CC[C@H]7OCC[C@H]76)CC5)nc4c2F)N2C[C@H]4CC[C@H](N4)[C@H]2[C@H](C)O3)c1C(F)(F)F` [Compound 268, 4-((5S,5aS,6S,9R)-1-fluoro-12-((1-(((3aR,6aR)-hexahydro-4H-furo[3,2-b]pyrrol-4-yl)methyl)cyclopropyl)methoxy)-5-methyl-5a,6,7,8,9,10-hexahydro-5H-4-oxa-3,10a,11,13,14-pentaaza-6,9-methanonaphtho[1,8-ab]heptalene-2-yl)-6-methyl-5-(trifluoromethyl)pyridin-2-amine], the IC50 in assay [1] (read-out: KRas HTRF IC50) came out at 11.9 nM; in assay [2], 0.29 nM.

Consider `Cc1nc(N)c(F)c(-c2nc3c4c(nc(OC[C@@]56CCCN5C[C@H](F)C6)nc4c2F)N2C[C@H]4CC[C@H](N4)[C@H]2[C@H](C)O3)c1C(F)(F)F` [Compound 194, 3-Fluoro-4-((5S,5aS,6S,9R)-1-fluoro-12-(((2R,7aS)-2-fluorotetrahydro-1H-pyrrolizin-7a(5H)-yl)methoxy)-5-methyl-5a,6,7,8,9,10-hexahydro-5H-4-oxa-3,10a,11,13,14-pentaaza-6,9-methanonaphtho[1,8-ab]heptalen-2-yl)-6-methyl-5-(trifluoromethyl)pyridin-2-amine], for which the IC50 in assay [1] (read-out: KRas HTRF IC50) was determined as 28.9 nM; in assay [2] it was 0.42 nM.

For `Oc1cc(-c2nc3c4c(nc(OC[C@@]56CCCN5C[C@H](F)C6)nc4c2F)N2C[C@H]4CC[C@H](N4)[C@H]2CO3)c2c(F)cccc2c1` [Compound 1, 5-Fluoro-4-((5aS,6S,9R)-1-fluoro-12-(((2R,7aS)-2-fluorotetrahydro-1H-pyrrolizin-7a(5H)-yl)methoxy)-5a,6,7,8,9,10-hexahydro-5H-4-oxa-3,10a,11,13,14-pentaaza-6,9-methanonaphtho[1,8-ab]heptalen-2-yl)naphthalen-2-ol], the results for the IC50 in assay [1] (setting [3]) and in assay [2] were 8.12 nM and 0.12 nM, respectively.

`C[C@@H]1Oc2nc(-c3cc(N)c(F)c(F)c3CC(F)F)c(F)c3nc(OC[C@@]45CCCN4C[C@H](F)C5)nc(c23)N2C[C@H]3CC[C@H](N3)[C@@H]12` [Compound 190, 4-(2,2-Difluoroethyl)-2,3-difluoro-5-((5S,5aS,6S,9R)-1-fluoro-12-(((2R,7aS)-2-fluorotetrahydro-1H-pyrrolizin-7a(5H)-yl)methoxy)-5-methyl-5a,6,7,8,9,10-hexahydro-5H-4-oxa-3,10a,11,13,14-pentaaza-6,9-methanonaphtho[1,8-ab]heptalene-2-yl)aniline]: the IC50 worked out at 10.1 nM in assay [1] (read-out: KRas HTRF IC50) and 0.11 nM in assay [2].

For the compound `Cc1cc(N)c(F)c(-c2nc3c4c(nc(OC[C@@]56CCCN5C[C@H](F)C6)nc4c2F)N2C[C@H]4CC[C@H](N4)[C@H]2CO3)c1C(F)(F)F` [Compound 36, 2-fluoro-3-((5aS,6S,9R)-1-fluoro-12-(((2R,7aS)-2-fluorotetrahydro-1H-pyrrolizin-7a(5H)-yl)methoxy)-5a,6,7,8,9,10-hexahydro-5H-4-oxa-3,10a,11,13,14-pentaaza-6,9-methanonaphtho[1,8-ab]heptalen-2-yl)-5-methyl-4-(trifluoromethyl)aniline], the IC50 was determined as 46.5 nM in assay [1] (setting [3]) and 0.98 nM in assay [2].

Take `Cc1nc(N)c(F)c(-c2nc3c4c(nc(OCC56CCN5CC(F)(F)C6)nc4c2F)N2C[C@H]4CC[C@H](N4)[C@H]2[C@H](C)O3)c1C(F)(F)F` (stereo partly drawn) [Compound 220, 4-((5S,5aS,6S,9R)-12-((3,3-Difluoro-1-azabicyclo[3.2.0]heptan-5-yl)methoxy)-1-fluoro-5-methyl-5a,6,7,8,9,10-hexahydro-5H-4-oxa-3,10a,11,13,14-pentaaza-6,9-methanonaphtho[1,8-ab]heptalene-2-yl)-3-fluoro-6-methyl-5-(trifluoromethyl)pyridin-2-amine]: the IC50 in assay [1] (read-out: KRas HTRF IC50) came to 149 nM; in assay [2], 0.92 nM.

As a reminder, the IC50 is the concentration that gives 50% inhibition.
